Test system: Vibrio fischerio
Test: Microtox Response Test (bioluminescence of Microtox Acute Toxicity Reagent)
Format: cell-based
Conditions: pure anionic surfactant; EC50 for 50% decrease of bioluminescence, 5 minutes
Procedure: Reference: Microtox Manual: A Toxicity Testing Handbook, 1992 Volume I-IV; Microbics Corporation.
Equipment: Microtox M500 Toxicity Testing Unit; Microbics Corporation Connected to computer for data acquisition and analysis according to above reference.
1. Preparation of Sample Stock Solution (Standard Concentration: 1000 ppm)
The stock solution of the test anionic surfactant sample is prepared and used as a stock solution from which all other dilutions are made. The standard “starting concentration”, the highest concentration to be tested, is 500 ppm. […]
a) Turn on test unit and allow reagent well temperature to equilibrate at 5.5° C. and incubator block and read well temperature to equilibrate at 15° C. […]
c) Place the assay cuvette containing reagent which corresponds to the test blank into the read well and press SET. After the cuvette has resurfaced press READ and the value will be captured by the computer.
d) Similarly read the remaining 7 cuvettes containing reagent when prompted by the computer by pressing the READ button with the correct cuvette in the READ well.
e) After all 8 initial reading have been taken, transfer 500 μl of the diluted test substance into their corresponding cuvette containing the reagent. […]

Compound	Microtox Index
CCCCCCCCCCCCOS(=O)(=O)O.N [ammonium lauryl sulfate]	1.0 ppm
ammonium laureth-3 sulfate	120 ppm

From patent US6488943B1, “Antimicrobial wipes which provide improved immediate germ reduction” (The Procter & Gamble Company, priority 1999, dated 2002)
